Assay results taken from patent EP4620959A1, “CYCLIC COMPOUNDS USED AS MULTI-TARGET KINASE INHIBITORS AND PREPARATION METHOD THEREFOR” (Shanghai Institute of Organic Chemistry, Chinese Academy of …, priority 2022, dated 2024).

Tests used:
[1] = molecular target: FGFR4 V550L (Homo sapiens, UniProt P22455, V550L); experiment: Kinase activity inhibition assay (ADP-Glo), FGFR4 V550L; type: biochemical; settings: ATP 20 µM
Description: (§1) The kinase activity inhibition assay was performed by ICE Bioscience (Beijing) using ADP-Glo and HTRF methods.
(§2) Table 1.1-1 ADP-Glo Buffer
(§3) Table 1.2-1 ADP-Glo Kinase and Substrate Formulation
(§4) SD is the standard error, and AVE is the average value. Table 2-1 LRRK2 Activity Inhibition Test Results

[2] = molecular target: DYRK2 (Homo sapiens, UniProt Q92630); experiment: Kinase activity inhibition assay (ADP-Glo), DYRK2; type: biochemical; settings: ATP 5 µM
Description: as §1, §2, §3, §4

[3] = molecular target: FGFR1 (Homo sapiens, UniProt P11362); experiment: Kinase activity inhibition assay (HTRF), FGFR1; type: biochemical; settings: ATP 40 µM
Description: as §1
(§5) Table 1.2-2 HTRF Kinase and Substrate Formulation
(§6) • 1) 2×ATP/substrate solution and 2×kinase/metal ion solution were prepared using kinase reaction buffer; • 2) 20 nL (ADP-GLo) or 40 nL (HTRF) of compound dilution was transferred using Echo 655 onto a 384-well assay plate; after centrifugation, 2 µL of 2×kinase and metal ion solution were added to the 384-well assay plate, centrifuged at 1000 rpm for 1 min, and incubated at 25°C for 10 min; • 3) 2 µL of 2×substrate and ATP solution were added to the 384-well assay plate, centrifuged at 1000 rpm for 1 min, and incubated at 25°C for 60 min. • 4) 4 µL of ADP-Glo was transferred to the 384-well assay plate, entrifuged at 1000 rpm for 1 min, and incubated at 25°C for 40 min. • 5) 8 µL of detection solution was transferred to the 384-well assay plate, centrifuged at 1000 rpm for 1 min, and incubated at 25°C for 40 min. • 6) Luminescence signals was read using a multifunctional microplate reader.
as §4

[4] = molecular target: FGFR2 (Homo sapiens, UniProt P21802); experiment: Kinase activity inhibition assay (HTRF), FGFR2; type: biochemical; settings: ATP 20 µM
Description: as §1, §5, §6, §4

[5] = molecular target: FGFR3 (Homo sapiens, UniProt P22607); experiment: Kinase activity inhibition assay (HTRF), FGFR3; type: biochemical; settings: ATP 50 µM
Description: as §1, §5, §6, §4

[6] = molecular target: FGFR4 (Homo sapiens, UniProt P22455); experiment: Kinase activity inhibition assay (HTRF), FGFR4; type: biochemical; settings: ATP 50 µM
Description: as §1, §5, §6, §4

[7] = molecular target: FGFR2 V564I (Homo sapiens, UniProt P21802, V564I); experiment: Kinase activity inhibition assay (HTRF), FGFR2 V564I; type: biochemical; settings: ATP 20 µM
Description: as §1, §5, §6, §4

[8] = molecular target: FGFR3 K650M (Homo sapiens, UniProt P22607, K650M); experiment: Kinase activity inhibition assay (HTRF), FGFR3 K650M; type: biochemical; settings: ATP 12 µM
Description: as §1, §5, §4

[9] = molecular target: FGFR3 V555L (Homo sapiens, UniProt P22607, V555L); experiment: Kinase activity inhibition assay (HTRF), FGFR3 V555L; type: biochemical; settings: ATP 20 µM
Description: as §1, §5, §6, §4

[10] = molecular target: RET V804L (Homo sapiens, UniProt P07949, V804L); experiment: Kinase activity inhibition assay (HTRF), RET V804L; type: biochemical; settings: ATP 5 µM
Description: as §1, §5, §6, §4

[11] = molecular target: FGFR4 N535K (Homo sapiens, UniProt P22455, N535K); experiment: Kinase activity inhibition assay (HTRF), FGFR4 N535K; type: biochemical; settings: ATP 100 µM
Description: as §1, §5, §6, §4

[12] = molecular target: TYRO3 (Homo sapiens, UniProt Q06418); experiment: Kinase activity inhibition assay (HTRF), TYRO3; type: biochemical; settings: ATP 0.5 µM
Description: as §1, §5, §4

[13] = molecular target: FGFR1 V561M (Homo sapiens, UniProt P11362, V561M); experiment: Kinase activity inhibition assay (HTRF), FGFR1 V561M; type: biochemical; settings: ATP 20 µM
Description: as §1, §5, §6, §4

[14] = molecular target: FGFR4 V550M (Homo sapiens, UniProt P22455, V550M); experiment: Kinase activity inhibition assay (HTRF), FGFR4 V550M; type: biochemical; settings: ATP 60 µM
Description: as §1, §5, §4

[15] = molecular target: FGFR2 V564F (Homo sapiens, UniProt P21802, V564F); experiment: Kinase activity inhibition assay (HTRF), FGFR2 V564F; type: biochemical; settings: ATP 15 µM
Description: as §1, §5, §6, §4

[16] = molecular target: FGFR3 V555M (Homo sapiens, UniProt P22607, V555M); experiment: Kinase activity inhibition assay (HTRF), FGFR3 V555M; type: biochemical; settings: ATP 20 µM
Description: as §1, §5, §6, §4

[17] = molecular target: FGFR2 N549H (Homo sapiens, UniProt P21802, N549H); experiment: Kinase activity inhibition assay (HTRF), FGFR2 N549H; type: biochemical; settings: ATP 9 µM
Description: as §1, §5, §4

[18] = molecular target: FLT1 (Homo sapiens, UniProt P17948); experiment: Kinase activity inhibition assay (ADP-Glo), FLT1; type: biochemical; settings: ATP 50 µM
Description: as §1, §2, §3, §6, §4

[19] = molecular target: FLT4 (Homo sapiens, UniProt P35916); experiment: Kinase activity inhibition assay (HTRF), FLT4; type: biochemical; settings: ATP 32 µM
Description: as §1, §5, §6, §4

[20] = molecular target: PDGFRα (Homo sapiens, UniProt P16234); experiment: Kinase activity inhibition assay (HTRF), PDGFRα; type: biochemical; settings: ATP 0.5 µM
Description: as §1, §5, §6, §4

[21] = molecular target: KDR (Homo sapiens, UniProt P35968); experiment: Kinase activity inhibition assay (HTRF), KDR; type: biochemical; settings: ATP 4 µM
Description: as §1, §5, §4

[22] = molecular target: FLT3 (Homo sapiens, UniProt P36888); experiment: Kinase activity inhibition assay (HTRF), FLT3; type: biochemical; settings: ATP 2 µM
Description: as §1, §5, §6, §4

[23] = Oral pharmacokinetic study in rats; settings: rat, in vivo, 5 mg/kg, male SD rats, oral gavage, dose 5mpk, 1% MC
Description: Drug preparation: 1% MC was added to the compound, ground, and shaken uniformly. Samples were collected at 5 min, 15 min, 30 min, 1 h, 2 h, 4 h, and 8 h post-dose, followed by analysis using liquid chromatography-tandem mass spectrometry (LC-MS/MS). Table 3 PK Data of Selected Compounds

Chain of FGFR1 (P11362 22-822): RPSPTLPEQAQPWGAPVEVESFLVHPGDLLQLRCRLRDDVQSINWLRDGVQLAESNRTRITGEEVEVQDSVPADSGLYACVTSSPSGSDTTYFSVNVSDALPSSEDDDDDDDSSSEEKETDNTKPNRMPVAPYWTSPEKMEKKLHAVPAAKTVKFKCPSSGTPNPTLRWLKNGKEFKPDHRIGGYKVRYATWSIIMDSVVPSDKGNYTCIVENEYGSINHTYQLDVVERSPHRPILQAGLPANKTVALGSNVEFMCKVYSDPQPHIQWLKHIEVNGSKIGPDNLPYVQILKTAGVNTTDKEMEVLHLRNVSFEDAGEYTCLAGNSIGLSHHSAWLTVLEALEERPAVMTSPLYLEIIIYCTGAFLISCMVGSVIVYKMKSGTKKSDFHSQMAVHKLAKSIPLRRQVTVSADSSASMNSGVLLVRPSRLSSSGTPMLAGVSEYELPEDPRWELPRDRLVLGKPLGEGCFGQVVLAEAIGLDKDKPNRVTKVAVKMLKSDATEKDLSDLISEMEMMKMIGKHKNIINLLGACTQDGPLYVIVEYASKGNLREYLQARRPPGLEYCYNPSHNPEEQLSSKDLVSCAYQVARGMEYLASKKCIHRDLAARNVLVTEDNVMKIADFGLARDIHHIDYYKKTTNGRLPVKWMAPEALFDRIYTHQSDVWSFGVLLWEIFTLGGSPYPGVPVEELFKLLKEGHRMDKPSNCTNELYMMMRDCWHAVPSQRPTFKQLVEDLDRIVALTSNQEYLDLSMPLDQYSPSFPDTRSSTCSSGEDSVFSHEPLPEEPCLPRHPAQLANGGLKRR
Chain of FGFR4 V550M (P22455 22-802 V550M): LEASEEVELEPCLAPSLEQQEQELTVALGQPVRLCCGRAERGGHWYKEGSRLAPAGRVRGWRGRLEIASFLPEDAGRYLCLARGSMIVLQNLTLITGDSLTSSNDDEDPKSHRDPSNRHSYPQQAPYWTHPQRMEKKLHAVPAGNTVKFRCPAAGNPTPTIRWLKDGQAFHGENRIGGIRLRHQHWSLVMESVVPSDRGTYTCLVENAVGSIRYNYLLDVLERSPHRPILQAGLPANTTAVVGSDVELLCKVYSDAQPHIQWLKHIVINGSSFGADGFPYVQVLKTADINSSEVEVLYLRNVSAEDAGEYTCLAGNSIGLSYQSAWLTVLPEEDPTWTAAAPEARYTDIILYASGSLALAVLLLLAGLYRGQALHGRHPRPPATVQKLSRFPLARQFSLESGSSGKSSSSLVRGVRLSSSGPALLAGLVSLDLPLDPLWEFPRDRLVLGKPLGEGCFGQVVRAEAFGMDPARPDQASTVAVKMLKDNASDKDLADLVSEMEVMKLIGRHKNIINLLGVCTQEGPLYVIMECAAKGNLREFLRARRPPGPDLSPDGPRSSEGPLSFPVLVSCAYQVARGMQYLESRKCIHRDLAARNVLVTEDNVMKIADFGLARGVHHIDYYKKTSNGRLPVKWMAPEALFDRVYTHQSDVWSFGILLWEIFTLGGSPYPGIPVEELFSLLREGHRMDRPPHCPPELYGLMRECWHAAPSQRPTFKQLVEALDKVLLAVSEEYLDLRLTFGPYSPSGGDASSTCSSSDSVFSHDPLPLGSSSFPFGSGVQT
Chain of FGFR3 K650M (P22607 23-806 K650M): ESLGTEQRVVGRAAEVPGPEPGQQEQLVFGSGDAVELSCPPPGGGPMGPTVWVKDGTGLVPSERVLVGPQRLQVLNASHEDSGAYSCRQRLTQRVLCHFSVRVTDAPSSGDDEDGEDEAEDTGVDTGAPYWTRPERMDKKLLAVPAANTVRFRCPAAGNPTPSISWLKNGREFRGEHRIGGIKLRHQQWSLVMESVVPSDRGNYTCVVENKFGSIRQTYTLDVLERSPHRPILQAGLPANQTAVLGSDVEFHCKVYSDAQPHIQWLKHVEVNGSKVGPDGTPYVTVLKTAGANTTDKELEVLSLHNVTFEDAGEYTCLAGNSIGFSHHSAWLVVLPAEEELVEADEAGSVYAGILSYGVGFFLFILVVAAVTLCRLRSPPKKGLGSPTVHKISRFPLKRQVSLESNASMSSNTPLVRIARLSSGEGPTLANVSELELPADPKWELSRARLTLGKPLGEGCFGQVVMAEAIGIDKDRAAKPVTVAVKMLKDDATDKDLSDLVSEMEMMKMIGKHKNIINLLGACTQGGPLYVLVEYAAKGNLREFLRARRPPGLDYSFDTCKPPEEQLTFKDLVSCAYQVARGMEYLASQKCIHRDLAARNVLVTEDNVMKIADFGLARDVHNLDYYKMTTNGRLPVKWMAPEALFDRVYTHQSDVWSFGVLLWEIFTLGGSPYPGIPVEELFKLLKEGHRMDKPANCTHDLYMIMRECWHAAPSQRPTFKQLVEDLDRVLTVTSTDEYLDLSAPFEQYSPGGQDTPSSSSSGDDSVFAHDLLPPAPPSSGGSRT
Chain of FGFR3 V555M (P22607 23-806 V555M): as the sequence (P22607 23-806 K650M) above, with V533M, M628K counted along it
Chain of FGFR2 (P21802 22-821): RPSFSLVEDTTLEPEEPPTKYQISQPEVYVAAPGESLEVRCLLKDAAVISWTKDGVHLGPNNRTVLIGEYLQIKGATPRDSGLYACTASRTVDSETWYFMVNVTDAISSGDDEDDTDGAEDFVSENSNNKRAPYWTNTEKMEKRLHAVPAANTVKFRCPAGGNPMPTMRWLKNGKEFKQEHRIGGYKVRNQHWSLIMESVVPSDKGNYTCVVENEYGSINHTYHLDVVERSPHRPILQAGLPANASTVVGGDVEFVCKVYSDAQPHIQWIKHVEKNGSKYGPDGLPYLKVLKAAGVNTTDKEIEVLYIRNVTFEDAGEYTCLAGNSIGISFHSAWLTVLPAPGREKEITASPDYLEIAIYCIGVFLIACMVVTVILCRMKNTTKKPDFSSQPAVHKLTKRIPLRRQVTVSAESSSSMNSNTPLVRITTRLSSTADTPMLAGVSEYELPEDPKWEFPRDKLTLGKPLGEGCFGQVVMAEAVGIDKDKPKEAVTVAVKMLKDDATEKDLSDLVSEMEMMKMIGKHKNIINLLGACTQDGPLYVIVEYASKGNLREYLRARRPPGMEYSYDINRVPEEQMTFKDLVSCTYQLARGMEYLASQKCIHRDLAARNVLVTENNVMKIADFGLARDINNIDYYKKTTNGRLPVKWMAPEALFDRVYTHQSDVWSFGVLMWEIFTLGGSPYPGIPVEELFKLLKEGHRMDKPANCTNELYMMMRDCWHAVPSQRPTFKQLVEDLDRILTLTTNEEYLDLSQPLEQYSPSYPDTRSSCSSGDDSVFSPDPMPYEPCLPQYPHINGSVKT
Chain of FGFR1 V561M (P11362 22-822 V561M): as the sequence (P11362 22-822) above, with V540M counted along it

## Cc1nn2cc1Nc1ncc3c(Cl)cc(n3n1)CCCNC(=O)C2(C)C [Example T-25, (1^1Z,3^4E)-1^5-Chloro-3^3,4,4-trimethyl-3^1H-2,6-diaza-1(2,7)-pyrrolo[2,1-f][1,2,4]triazine-3(4,1)-pyrazolacyclononan-5-one]
[1]
  IC50: 208 nM
[2]
  IC50: 27.7 nM
[3]
  IC50: 180 nM
[4]
  IC50: 31.9 nM
[5]
  IC50: 67.5 nM
[6]
  IC50: 58.3 nM
[7]
  IC50: 60.2 nM
[8]
  IC50: 14.1 nM
[9]
  IC50: 8.81 nM
[10]
  IC50: 43.9 nM
[11]
  IC50: 621 nM
[12]
  IC50: 56.1 nM
[13]
  IC50: 13.8 nM
[14]
  IC50: 105 nM
[15]
  IC50: 1.73 nM
[16]
  IC50: 5.07 nM
[17]
  IC50: 17.4 nM
[18]
  IC50: 8.83 nM
[19]
  IC50: 19.2 nM
[20]
  IC50: 67 nM
[21]
  IC50: 7.67 nM
[22]
  IC50: 88.1 nM
[23]
  Cmax: 630 ng/mL
  Tmax: 1 h
  half-life: 1.73 h
[23]; read-out: AUC0-8
  AUC(0-t) at 8 h: 2210 ng·h/mL
